The record followed here is patent US8604040B2 (priority 2010, dated 2013).

One may read the log P as a log measure of how a compound divides between an organic and an aqueous phase. Lower therefore signals lower lipophilicity.

The nature of this data set: log P by HPLC (EEC Directive 79/831 Annex V.A8). In kind it is physicochemical.
Where [1] appears, read: [b] LC-MS, acidic range, pH 2.7, 0.1% aqueous formic acid and acetonitrile.
Where [2] appears, read: [c] LC-MS, neutral range, pH 7.8, 0.001 molar aqueous ammonium hydrogencarbonate and acetonitrile.
The mark [3] stands for this setting: HPLC, pH 2.7, given in the preparation examples, read-out: logP (pH2.7).

Each structure is given as a SMILES string. Where two headings read alike, the source gives them in different places. Marks after values point to notes of the source that are not given here.

`Cc1cc(C(F)(F)F)nn1CC(=O)N1CCC(c2cccc(C(=O)NC(C)c3ccccc3Cl)n2)CC1` (racemic) [Example 16]: the lipophilicity (log P) reads like this: under setting [1], 3.82; under setting [2], 3.75.
As for `CCCCCC(C)NC(=O)c1cccc(C2CCN(C(=O)Cn3nc(C(F)(F)F)cc3C)CC2)n1` (racemic) [Example 17], the “log P” value worked out at 4.17 under setting [1] and 4.13 under setting [2].
For the compound `Cc1cc(C(F)(F)F)nn1CC(=O)N1CCC(c2cccc(C(=O)NC3CCc4ccccc43)n2)CC1` (racemic) [Example 19], the “log P” value runs as follows: under setting [1], 3.56^[b]; 3.56^[c]; under setting [2], 3.56^[b]; 3.56^[c].
Take `CCOC(=O)c1cccc(C2=CCN(C(=O)OC(C)(C)C)CC2)n1` [1′-tert-butyl 6-ethyl-3′,6′-dihydro-2,4′-bipyridine-1′,6(2′H)-dicarboxylate]: the “logP (pH2.7)” value (pH 2.7, given in the preparation examples) amounted to 3.48.
As for `CCOC(=O)c1cccc(C2CCNCC2)n1` [4-[6-(Ethoxycarbonyl)pyridin-2-yl]piperidinium chloride], the chromatographic logP under setting [3] was 0.55.
The same measure, in the same setting: the value for `O=C(O)c1cccc(N2CCN(C(=O)Cn3nc(C(F)F)cc3C(F)F)CC2)n1` [6-(4-{[3,5-Bis(difluoromethyl)-1H-pyrazol-1-yl]acetyl}piperazin-1-yl)pyridine-2-carboxylic acid] was 0.68; that for `CC(C)(C)OC(=O)N1CCC(c2cccc(C(=O)O)n2)CC1` [6-[1-(tert-Butoxycarbonyl)piperidin-4-yl]pyridine-2-carboxylic acid] was 1.78.
Still for that read-out and setting: the value for `CCOC(=O)c1cccc(N2CCN(C(=O)Cn3nc(C(F)F)cc3C(F)F)CC2)n1` [Ethyl 6-(4-{[3,5-bis(difluoromethyl)-1H-pyrazol-1-yl]acetyl}piperazin-1-yl)pyridine-2-carboxylate] was 2.71.
In the case of `CCOC(=O)c1cccc(C2CCN(C(=O)OC(C)(C)C)CC2)n1` [Ethyl 6-[1-(tert-butoxycarbonyl)piperidin-4-yl]pyridine-2-carboxylate], the chromatographic logP under setting [3] came out at 3.29.
For the compound `CN(Cc1ccccc1Br)C(=O)c1cccc(C2CCN(C(=O)Cn3nc(C(F)F)cc3C(F)F)CC2)n1` [Example 1], the “log P” value runs as follows: under setting [1], 3.32; under setting [2], 3.37.
For `Cc1cc(C(F)(F)F)nn1CC(=O)N1CCC(c2cccc(C(=O)N(C)Cc3ccccc3Br)n2)CC1` [Example 2] the same measures were 3.47 and 3.49.
Take `O=C(NCc1ccccc1Br)c1cccc(C2CCN(C(=O)Cn3nc(C(F)F)cc3C(F)F)CC2)n1` [Example 4]: the “log P” value by setting is: under setting [1], 3.44; under setting [2], 3.47.
In the same order, the values of `Cc1cc(C(F)(F)F)nn1CC(=O)N1CCC(c2cccc(C(=O)NCc3ccccc3Br)n2)CC1` [Example 5] are 3.59^[b]; 3.59^[c] and 3.59^[b]; 3.59^[c].
`Cc1cc(C(F)(F)F)nn1CC(=O)N1CCC(c2cccc(C(=O)OCCCC(F)(F)F)n2)CC1` [Example 6]: under setting [1], the “log P” value was 3.37^[b].
As for `O=C(OCc1ccccc1OC(F)(F)F)c1cccc(C2CCN(C(=O)Cn3nc(C(F)F)cc3C(F)F)CC2)n1` [Example 7], the “log P” value under setting [1] was 3.98^[b].
On to `Cc1cc(C(F)(F)F)nn1CC(=O)N1CCC(c2cccc(C(=O)OCc3ccccc3OC(F)(F)F)n2)CC1` [Example 8], for which the “log P” value under setting [1] is 4.06^[b].
For `O=C(OCc1ccccc1OC(F)(F)F)c1cccc(C2CCN(C(=O)Cn3nc(C(F)F)cc3C(F)F)CC2)n1` [Example 9], under setting [1], the “log P” value is 3.89^[b].
Consider `Cc1cc(C(F)(F)F)nn1CC(=O)N1CCC(c2cccc(C(=O)N(C)c3ccccc3Cl)n2)CC1` [Example 10], for which the “log P” value reads like this: under setting [1], 3.18; under setting [2], 3.2.
On to `Cc1cc(C(F)(F)F)nn1CC(=O)N1CCC(c2cccc(C(=O)N(C)C3CCCCC3)n2)CC1` [Example 11], for which the “log P” value under setting [1] is on record as 3.15 and the “log P” value under setting [2] was found to be 3.18.
On to `Cc1cc(C(F)(F)F)nn1CC(=O)N1CCC(c2cccc(C(=O)N(C)C3CCCc4ccccc43)n2)CC1` (centres unmarked) [Example 12, N-Methyl-6-(1-{[5-methyl-3-(trifluoromethyl)-1H-pyrazol-1-yl]acetyl}piperidin-4-yl)-N-(1,2,3,4-tetrahydronaphthalen-1-yl)pyridine-2-carboxamide], for which the chromatographic logP was 3.61 (HPLC (LC-MS), [b] LC-MS, acidic range, pH 2.7, 0.1% aqueous formic acid and acetonitrile, read-out: log P); 3.61 under setting [3].
Take `Cc1cc(C(F)(F)F)nn1CC(=O)N1CCC(c2cccc(C(=O)N(C)Cc3ccc(Cl)cc3Cl)n2)CC1` [Example 13]: the “log P” value runs as follows: under setting [1], 3.85^[b]; 3.85^[c]; under setting [2], 3.85^[b]; 3.85^[c].
For the compound `Cc1cc(C(F)(F)F)nn1CC(=O)N1CCC(c2cccc(C(=O)N(C)Cc3ccccn3)n2)CC1` [Example 14], the “log P” value under setting [2] was 2.23^[c].
On to `Cc1cc(C(F)(F)F)nn1CC(=O)N1CCC(c2cccc(C(=O)N3CCOc4ccccc43)n2)CC1` [Example 15], for which the lipophilicity (log P) was 3.04^[b]; 3.04^[c] under setting [1] and 3.04^[b]; 3.04^[c] under setting [2].
For `Cc1cc(C(F)(F)F)nn1CC(=O)N1CCC(c2cccc(C(=O)NC3CCCCC3)n2)CC1` [Example 18], the “log P” value under setting [2] was 3.46^[c].
Consider `CCCCCCCNC(=O)c1cccc(C2CCN(C(=O)Cn3nc(C(F)(F)F)cc3C)CC2)n1` [Example 20], for which the “log P” value under setting [1] is 4.25 and the “log P” value under setting [2] is recorded as 4.24.
In the same order, the values of `Cc1cc(C(F)(F)F)nn1CC(=O)N1CCC(c2cccc(C(=O)NCc3ccc(Cl)cc3Cl)n2)CC1` [Example 21] are 4.1 and 4.
On to `Cc1cc(C(F)(F)F)nn1CC(=O)N1CCC(c2cccc(C(=O)NCc3ccc(F)cc3F)n2)CC1` [Example 22], for which the log partition coefficient (log P) is 3.36^[b]; 3.36^[c] under setting [1] and 3.36^[b]; 3.36^[c] under setting [2].
With `Cc1cc(C(F)(F)F)nn1CC(=O)N1CCC(c2cccc(C(=O)NCc3ccccc3Cl)n2)CC1` [Example 23], the “log P” value is, setting by setting: under setting [1], 3.49; under setting [2], 3.52.
With `Cc1cc(C(F)(F)F)nn1CC(=O)N1CCC(c2cccc(C(=O)NCc3c(F)cccc3F)n2)CC1` [Example 24], the “log P” value is, setting by setting: under setting [1], 3.33; under setting [2], 3.26.
As for `Cc1cc(C(F)(F)F)nn1CC(=O)N1CCC(c2cccc(C(=O)NCc3ccccn3)n2)CC1` [Example 25], the “log P” value under setting [1] is reported as 1.97 and the “log P” value under setting [2] was 2.44.
For `Cc1cc(C(F)(F)F)nn1CC(=O)N1CCC(c2cccc(C(=O)NCc3cccs3)n2)CC1` [Example 26] the same measures were 3.15 and 3.1.
In the case of `Cc1ccsc1CNC(=O)c1cccc(C2CCN(C(=O)Cn3nc(C(F)(F)F)cc3C)CC2)n1` [Example 27], the “log P” value is recorded as 3.29 under setting [1] and 3.34 under setting [2].
For `Cc1cc(C(F)(F)F)nn1CC(=O)N1CCC(c2cccc(C(=O)Nc3c(F)cccc3F)n2)CC1` [Example 28], the “log P” value is, setting by setting: under setting [1], 3.13; under setting [2], 3.15.
For `Cc1cc(C(F)(F)F)nn1CC(=O)N1CCC(c2cccc(C(=O)Nc3cccc4ccccc34)n2)CC1` [Example 29], the lipophilicity (log P) under setting [1] is listed as 3.94.
For `Cc1cc(C(F)(F)F)nn1CC(=O)N1CCC(c2cccc(C(=O)Nc3ccc4ccccc4c3)n2)CC1` [Example 30], the lipophilicity (log P) is, setting by setting: under setting [1], 4.09; under setting [2], 4.11.
As for `Cc1cc(C(F)(F)F)nn1CC(=O)N1CCC(c2cccc(C(=O)Nc3cccc4cccnc34)n2)CC1` [Example 31], the “log P” value is, setting by setting: under setting [1], 4.02; under setting [2], 4.04.
